The target of this assay is PAK1 (Homo sapiens, UniProt Q13153). As to the kind of experiment: PAK1 kinase inhibition, IC50 curves at 1 µM ATP. In kind it is biochemical.

The values that follow come from publication PMC3509364 (Angewandte Chemie (International ed. in English), 2012).

Sequence of PAK1 (Q13153 whole entry): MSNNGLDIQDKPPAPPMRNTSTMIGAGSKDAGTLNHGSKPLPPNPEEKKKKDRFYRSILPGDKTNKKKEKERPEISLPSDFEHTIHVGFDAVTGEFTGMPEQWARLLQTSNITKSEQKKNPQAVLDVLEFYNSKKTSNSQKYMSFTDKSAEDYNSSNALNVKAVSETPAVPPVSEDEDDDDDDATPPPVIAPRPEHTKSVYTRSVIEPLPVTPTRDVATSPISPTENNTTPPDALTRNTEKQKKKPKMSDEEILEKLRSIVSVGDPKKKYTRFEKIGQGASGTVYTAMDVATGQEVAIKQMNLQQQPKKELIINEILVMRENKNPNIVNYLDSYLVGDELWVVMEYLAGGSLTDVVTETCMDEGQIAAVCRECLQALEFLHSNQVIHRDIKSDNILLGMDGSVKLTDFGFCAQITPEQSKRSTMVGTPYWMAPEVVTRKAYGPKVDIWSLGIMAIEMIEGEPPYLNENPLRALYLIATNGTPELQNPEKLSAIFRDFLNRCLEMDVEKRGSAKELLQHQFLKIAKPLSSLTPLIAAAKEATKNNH

The term IC50 denotes the concentration that inhibits the measured activity by half. On to SeCN, for which the “fold weaker inhibitor of PAK1 than NCS complex 1” value (ratio of IC50 values, 1 µM ATP) is given as 7.5 fold. Moreover, where the note is “read-out: IC50 against PAK1, 1 µM ATP (Figure 3)”, the half-inhibitory concentration (IC50) was found to be 625 ± 60 nM.
